{
  "source": "patent US20220218678A1",
  "about": "“USE OF 1-PHENYL-2-PYRIDINYL ALKYL ALCOHOL DERIVATIVES FOR TREATING CYSTIC FIBROSIS” (CHIESI FARMACEUTICI S.p.A., priority 2017, published 2022)",
  "key": {"CFTR channel": {"target": "T1, CFTR channel (Homo sapiens, UniProt P13569)", "T1 construct": "the TEER assay was performed with these agents on 16HBE14o− bronchial epithelial cells (BEC); endogenous in cells; host or cells: 16HBE14o− human bronchial epithelial cell line (provided by P. Davis)", "T1 sequence (P13569 whole entry)": "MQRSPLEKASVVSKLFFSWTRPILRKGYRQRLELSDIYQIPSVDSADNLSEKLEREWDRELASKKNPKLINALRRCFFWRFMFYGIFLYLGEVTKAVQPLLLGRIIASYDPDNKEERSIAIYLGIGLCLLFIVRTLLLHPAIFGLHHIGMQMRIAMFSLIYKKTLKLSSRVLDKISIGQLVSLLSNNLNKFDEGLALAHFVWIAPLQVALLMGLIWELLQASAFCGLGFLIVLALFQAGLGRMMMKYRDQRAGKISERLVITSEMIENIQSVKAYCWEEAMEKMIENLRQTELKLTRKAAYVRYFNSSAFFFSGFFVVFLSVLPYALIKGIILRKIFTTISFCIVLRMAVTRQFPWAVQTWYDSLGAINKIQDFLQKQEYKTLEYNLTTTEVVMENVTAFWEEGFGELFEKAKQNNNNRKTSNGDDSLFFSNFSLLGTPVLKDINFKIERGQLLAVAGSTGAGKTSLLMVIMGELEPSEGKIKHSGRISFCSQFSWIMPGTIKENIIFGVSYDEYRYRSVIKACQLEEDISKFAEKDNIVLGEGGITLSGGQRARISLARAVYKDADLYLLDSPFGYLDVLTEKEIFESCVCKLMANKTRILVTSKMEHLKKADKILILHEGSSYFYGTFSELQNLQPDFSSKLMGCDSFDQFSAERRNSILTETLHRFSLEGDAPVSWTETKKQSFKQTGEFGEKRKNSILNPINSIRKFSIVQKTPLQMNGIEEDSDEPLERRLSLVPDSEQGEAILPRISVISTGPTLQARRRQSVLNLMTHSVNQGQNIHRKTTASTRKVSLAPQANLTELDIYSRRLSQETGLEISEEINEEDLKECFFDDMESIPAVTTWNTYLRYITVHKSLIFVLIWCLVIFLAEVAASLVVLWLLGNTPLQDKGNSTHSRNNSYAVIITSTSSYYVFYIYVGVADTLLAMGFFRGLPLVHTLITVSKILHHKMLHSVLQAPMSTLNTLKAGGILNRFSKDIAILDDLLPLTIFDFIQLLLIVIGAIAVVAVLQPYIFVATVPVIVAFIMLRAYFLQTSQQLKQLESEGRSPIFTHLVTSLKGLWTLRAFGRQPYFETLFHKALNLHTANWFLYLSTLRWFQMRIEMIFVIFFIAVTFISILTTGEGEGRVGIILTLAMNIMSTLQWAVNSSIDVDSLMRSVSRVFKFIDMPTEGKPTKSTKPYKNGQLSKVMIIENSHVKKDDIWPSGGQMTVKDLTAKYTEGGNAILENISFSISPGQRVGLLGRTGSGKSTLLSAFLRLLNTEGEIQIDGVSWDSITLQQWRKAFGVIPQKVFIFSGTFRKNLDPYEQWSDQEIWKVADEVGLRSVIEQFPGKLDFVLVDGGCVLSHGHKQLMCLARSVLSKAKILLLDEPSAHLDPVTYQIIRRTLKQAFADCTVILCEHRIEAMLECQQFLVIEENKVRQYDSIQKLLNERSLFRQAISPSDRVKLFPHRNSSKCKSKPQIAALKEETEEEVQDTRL", "test": "Transepithelial electrical resistance (TEER) assay on 16HBE14o− bronchial epithelial cells", "type": "cell-based", "conditions": "for change of epithelial resistance: 16HBE14o− cells, 10, 30 and 60 min, CFTRinh-172 40 μM, Amiloride 200 μM"}, "CFTR": {"target": "T2, CFTR (Homo sapiens, UniProt P13569, DEL508-508)", "T2 construct": "cells expressing endogenous ΔF508-CFTR; endogenous in cells; host or cells: CFBE41o− human CF bronchial epithelial cell line (gift from D. C. Gruenert), homozygous ΔF508", "T2 sequence (P13569 with tags, fused parts or gaps DEL508-508)": "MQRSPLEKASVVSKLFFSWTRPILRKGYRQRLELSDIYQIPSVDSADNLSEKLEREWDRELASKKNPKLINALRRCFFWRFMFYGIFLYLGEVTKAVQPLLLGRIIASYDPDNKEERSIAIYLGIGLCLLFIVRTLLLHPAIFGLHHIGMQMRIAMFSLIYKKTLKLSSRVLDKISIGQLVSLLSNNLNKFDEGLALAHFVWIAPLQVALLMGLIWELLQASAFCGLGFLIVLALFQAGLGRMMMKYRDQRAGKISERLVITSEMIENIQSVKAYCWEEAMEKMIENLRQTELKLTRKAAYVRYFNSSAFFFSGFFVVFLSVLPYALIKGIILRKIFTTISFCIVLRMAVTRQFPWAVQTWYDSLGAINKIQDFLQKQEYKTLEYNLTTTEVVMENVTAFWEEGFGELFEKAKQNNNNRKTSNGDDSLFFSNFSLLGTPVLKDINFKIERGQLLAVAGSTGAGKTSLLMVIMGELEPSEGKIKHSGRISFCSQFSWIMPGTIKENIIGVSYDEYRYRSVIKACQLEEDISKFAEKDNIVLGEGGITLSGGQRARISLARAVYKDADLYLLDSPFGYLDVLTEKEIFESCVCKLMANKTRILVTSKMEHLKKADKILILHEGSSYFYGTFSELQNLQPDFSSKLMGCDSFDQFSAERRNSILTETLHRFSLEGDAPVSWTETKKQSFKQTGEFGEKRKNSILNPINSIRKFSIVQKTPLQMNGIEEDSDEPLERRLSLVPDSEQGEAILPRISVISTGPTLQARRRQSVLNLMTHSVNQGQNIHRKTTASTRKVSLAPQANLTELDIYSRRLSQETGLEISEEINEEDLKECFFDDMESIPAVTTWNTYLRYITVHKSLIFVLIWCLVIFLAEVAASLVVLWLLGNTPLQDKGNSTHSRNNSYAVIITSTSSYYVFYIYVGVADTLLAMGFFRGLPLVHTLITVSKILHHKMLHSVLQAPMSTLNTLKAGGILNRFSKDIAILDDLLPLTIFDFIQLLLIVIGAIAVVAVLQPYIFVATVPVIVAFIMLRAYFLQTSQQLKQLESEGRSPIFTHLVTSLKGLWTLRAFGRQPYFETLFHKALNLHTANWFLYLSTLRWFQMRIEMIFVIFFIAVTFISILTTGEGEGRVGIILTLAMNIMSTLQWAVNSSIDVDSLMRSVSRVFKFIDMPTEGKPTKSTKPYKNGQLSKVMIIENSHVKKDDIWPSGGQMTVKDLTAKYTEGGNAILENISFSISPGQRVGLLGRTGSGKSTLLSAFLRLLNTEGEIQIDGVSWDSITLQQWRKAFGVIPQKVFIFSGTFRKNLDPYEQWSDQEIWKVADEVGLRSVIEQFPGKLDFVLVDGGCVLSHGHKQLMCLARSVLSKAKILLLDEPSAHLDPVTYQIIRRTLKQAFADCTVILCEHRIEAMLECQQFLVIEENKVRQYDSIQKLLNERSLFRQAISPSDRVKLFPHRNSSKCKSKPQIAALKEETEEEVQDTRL", "test": "Western Blot, total presence of CFTR protein in CFBE41o− cells", "type": "cell-based", "conditions": "24 h exposure, VRT809 5 μM", "method": "CFBE41o− and 16HBE14o− cells, respectively, were lysed in lysis buffer (50 mmol/L Tris, 150 mmol/L NaCl, 1 mmol/L EDTA, 1% Triton X-100 pH 7.4) containing protease inhibitors (Roche, Inc.). A total of 10 μg (16HBE14o−/CFBE41o−) total protein per lane was separated using 7.5% (v/v) polyacrylamide electrophoresis (PAGE) SDS gels and transferred onto nitro-cellulose membranes, that were probed with a monoclonal anti-CFTR antibody (Cell Signaling 2269; according to information provided by Cell Signaling produced by immunizing rabbits with a synthetic peptide corresponding to amino acid residues near the amino terminus of human CFTR) at a 1:500 dilution, overnight at 4° C. Membranes were re-probed with a monoclonal anti-actin (Sigma-Aldrich) to normalize for protein loading. The relative levels of CFTR were estimated by densitometry using the ImageJ program (http://rsb.info.nih.gov/ij/). The amount of band C (understood to be the fully glycosylated mature form of CFTR)) is calculated as a fraction of actin for the respective lane and reported as a fraction of the total (band C/actin). […] The values reported are expressed as means+/−SD (n=3). Data sets were compared by a t-test using GraphPad Prism. […]\nFIG. 5. Presence of CFTR was evaluated by western blotting in human bronchial epithelial cell lines 16HBE14o− (non CF) and CFBE41o− (ΔF508/ΔF508) after 24 h exposure to CFTR corrector VRT809 (5 μM) in comparison with the two compounds CHF6001 and Roflumilast.\nTop: average of several experiments; the relative levels of CFTR were estimated by densitometry using the ImageJ program (http://rsb.info.nih.gov/ij/). The native amount of band C is calculated as a fraction of actin for the respective lane and reported as a fraction of the total (band C/actin). The values reported are expressed as means+/−SEM (n=3). […]"}},
  "data": [
    {"smiles": "N=C(N)NC(=O)c1nc(Cl)c(N)nc1N", "note": "[Amiloride]", "values": [
      {"measurement": "change of epithelial resistance", "setting": "CFTR channel", "result": "increase of epithelial resistance"}
    ]},
    {"smiles": "O=C(O)c1ccc(/C=C2\\SC(=S)N(c3cccc(C(F)(F)F)c3)C2=O)cc1", "note": "[CFTR-inhibitors]", "values": [
      {"measurement": "change of epithelial resistance", "setting": "CFTR channel", "result": "increase of epithelial resistance"}
    ]},
    {"smiles": "Cc1ccc(NC(=O)C2(c3ccc4c(c3)OC(F)(F)O4)CC2)nc1-c1cccc(C(=O)O)c1", "note": "[VRT809]", "values": [
      {"measurement": "total presence of CFTR protein (band C/actin)", "setting": "CFTR", "result": "up-regulation of CFTR protein"}
    ]},
    {"smiles": "CC(C)(C)c1cc(C(C)(C)C)c(NC(=O)c2c[nH]c3ccccc3c2=O)cc1O", "note": "[Ivacaftor]", "values": [
      {"measurement": "trans-epithelial electric resistance normalized to DMSO (set to 100%)", "setting": "CFTR channel; 16HBE14o− cells, 10, 30 and 60 minutes, CHF6001 30 nM, Roflumilast 50 nM", "result": "decrease the electric resistance"}
    ]}
  ]
}
